According to PMC10788856, “Mimicking Nonribosomal Peptides from the Marine Actinomycete Streptomyces sp. H-KF8 Leads to Antimicrobial Peptides” (ACS Infectious Diseases, 2023):
Numbered stars: 1 amine (or outer) side, 2 acyl side, 3 side chain; on linkers, the order of the positions; unused ones are H or OH. Bridge positions count the residues as written; N and C are the ends. Square brackets hold non-standard residues; d marks the D form. Peptide text beside a SMILES is read from it. Tyr(3-NO2) = N[C@@H](Cc1ccc(O)c([N+](=O)[O-])c1)C(=O)O; Glutaryl = O=C(CCCC(=O)[*:2])[*:1]; Orn = NCCC[C@H](N)C(=O)O

Legend:
S. aureus (ATCC 12600) = assay: Minimum microbicidal concentration (MMC99) assay; type: cell-based; conditions: BHI diluted 1/100, 37 °C, median, n = 3
Procedure: (§1) The microbicidal activity of the synthetic peptides was assessed against S. aureus (ATCC 12600; American Type Culture Collection, Manassas, VA, USA), Escherichia coli (CCUG 31246; Culture Collection, University of Gothenburg, Sweden), and Candida albicans (ATCC 64549/CCUG31028) using an MMC assay, as described previously by […] et al. (specific details in Supporting Information, pages 10, 11).[28] The assay was performed in BHI diluted 1/100 (BHI100). […] page 11: Table S5. Energy and structural ensembles of synthesized peptides. […] Energy -3887.06 -3620.88 -4968.42 -2163.76 -2646.75 Van der Waals solv. Energy 117.32 91.57 183.20 -88.88 -139.89 Mean RMSD* (Å), mean±SD […] Heavy atoms 1.87 ± 0.33 1.77 ± 0.50 0.98 ± 0.34 0.63 ±0.22 2.88 ±0.62 MMC99 activity including salt stability measurements Antimicrobial activity of L2 and L3 in the presence of NaCl. 1Table S6. Peptide MMC99 (μg/ml) sin NaCl S. aureus E.coli C. albicans (mM) 2[…] 0 50 25 25 85 - - - - - - >200 >200 >200 150 - - - - - - >200 >200 >200 3L 0 12.5 12.5 25 12,5 6.3 6.3 12.5 6.3 12.5 […] 150 >400 >400 (-)2 >400 >400 >400 >200 >200 >200 […] or 150 mM NaCl. L2 and L3 were serially diluted in twofold steps with a starting dilution of 200 μg/ml […] All sample dilutions were run in duplicates (L2) or triplicates (L3). 2 The growth of S. aureus at 24 h in BHI 100 with 85 or 150 mM NaCl was reduced. Minimum microbicidal concentration (MMC), killing 99% of the inoculum. All microorganisms were cultured in brain-heart infusion broth (BHI) overnight on a shaker at 37°C. The cultures were thereafter transferred to fresh BHI broth in volumes constituting 10% of total, and incubated for an additional 2 h to reach exponential growth phase. The bacterial cultures were washed once in BHI diluted 1/100 (BHI100), followed by resuspension in BHI100. The cell suspensions were diluted to a density of […] (bacteria) or 2x10^7 CFU/ml (yeast), as estimated by optical density measurement at 590 nm. […] Serum stability Figure S 133. […] A) peptide L2 B) peptide L3. C) peptide L3-K. D) peptide C3.

[1] = test system: Candida albicans (ATCC 64549/CCUG31028); assay: Minimum microbicidal concentration (MMC99) assay; type: cell-based, C. albicans; conditions: BHI diluted 1/100, 37 °C, median, n = 3
Procedure: as §1

S. aureus = assay: microbe, parasite or virus in culture; type: cell-based; conditions: 16 h
[2] = 37 °C, RP-HPLC
Procedure: Peptide stability in serum is another limiting factor for AMPs as novel antibiotics.[30]
Peptide serum stability was performed according to D́Aloisio et al.[30] and Chen et al.[51] with some minor modifications. The serum stability was investigated using human serum (Sigma-Aldrich) from Human male AB plasma, USA origin, sterile-filtered. 250 μL serum was temperature-equilibrated at 37 °C and 100 μL aqueous peptide solution (L2: 1 mM; L3: 0.9 mM; L3-K: 0.7 mM; and C3: 0.5 mM) was added. RP-HPLC was measured at time intervals of 0, 0.5, 1, 4, and 24 h. For RP-HPLC samples, 30 μL of peptide solution was taken, 7 μL of Fmoc-Gly solution (4 mM) was added, and 2 μL of the sample was injected to HPLC. […]
Figure S 133. RP-HPLC chromatogram (gradient from 10 to 90% acetonitrile in water over 10 min at 2
ml/min, detection at 254 nm) of peptides tested for serum stability. A) peptide L2 B) peptide L3. C)
(1 picture or pasted object on this page, not shown here)

[3] = test system: human embryonic kidney (HEK) cells; type: cell-based
Procedure: To confirm the peptide selectivity toward bacteria cells, cytotoxicity assays of synthesized peptides L2, L3, L3-K, and C3 against human embryonic kidney (HEK) and hepatoblastoma (HepG2) were performed (Figure 4). The cell viability was assessed using resazurin 24 h post peptide exposure. The line at 70% cell viability marks out the threshold for cytotoxic potential compared to the negative control.
Figure 4 Cell viability assessment using the resazurin assay 24 h post peptide exposure: (a) HepG2 and (b) HEK cells were treated with various concentrations of the peptides C3, L3, L3-K, and L2. Triton-X was used as a positive control. Cells cultured in pure cell media were used as negative controls and were considered to have 100% cell viability. The line represents the threshold for cytotoxicity level of 70% of cell viability compared to the negative control. Data are presented as the mean ± SD of three biological replicates of the HepG2 cells and the mean ± SD of two biological replicates of the HEK cells.
Cytotoxicity against human embryonic kidney (HEK) and hepatoblastoma (HepG2) cell lines was assessed. Cells were grown to an initial seeding density of 10 000 cells per well. Metabolic activity was determined in a resazurin-based assay. HEK and HepG2 cells were exposed to four different concentrations of the peptides for 24 h. Treatment with Triton X-100 at 1% v/v was used as a positive control. Following this exposure period, the cells were treated with resazurin at a final concentration of 0.015 mg/mL for 3 h. The metabolic activity was then determined in an resazurin-based assay. The fluorescence intensities were quantified in a Hidex Sense microplate reader using an excitation wavelength of 544 nm and an emission wavelength of 590 nm.

Structure (SMILES): CC(C)[C@H]1NC(=O)[C@H](CCCN)NC(=O)[C@H]([C@@H](C)O)NC(=O)[C@H](CCCN)NC(=O)[C@H](Cc2c[nH]c3ccccc23)NC(=O)[C@@H](C)NC(=O)[C@@H](C(C)C)NC(=O)[C@@H](C)NC(=O)[C@H](Cc2c[nH]c3ccccc23)NC(=O)CCCC(=O)NCCCC[C@@H](C(N)=O)NC(=O)[C@H](Cc2ccc(O)c([N+](=O)[O-])c2)NC1=O [C3] (W[dA][dV][dA]W[Orn]T[Orn][dV][Tyr(3-NO2)]K-NH2; linker N-11 via Glutaryl)
- S. aureus MMC99 6 h (S. aureus (ATCC 12600); 6 h): >100 µg/mL
- S. aureus MMC99 24 h (S. aureus (ATCC 12600); 24 h): >100 µg/mL
- S. aureus MMC99 2 h (S. aureus (ATCC 12600); lowest concentration killing 99% of inoculum, 2 h, two-fold dilutions 100-1.6 μg/mL): >100 µg/mL
- C. albicans MMC99 2 h ([1]; 2 h): >100 µg/mL
- C. albicans MMC99 6 h ([1]; 6 h): >100 µg/mL
- C. albicans MMC99 24 h ([1]; 24 h): >100 µg/mL
- S. aureus MIC (S. aureus): >512 µg/mL
- stability in human serum ([2]; human serum from male AB plasma, 250 μL serum + 100 μL aqueous peptide solution (L2 1 mM; L3 0.9 mM; L3-K 0.7 mM; C3 0.5 mM), 0, 0.5, 1, 4, 24 h, Fmoc-Gly internal standard): stable after 24 h
- additional peaks / shoulder in chromatogram after 24 h in serum, total volume percentage ([2]; human serum, 24 h, detection at 254 nm): does not show any additional signal
- cytotoxicity, cell viability HEK [3]: at the highest tested concentration seems to have cytotoxic properties
